We go through six molecules from ChEMBL document CHEMBL1201862, “PubChem BioAssay data set” (2004).

Calls of active or inactive are those of the source. A value given as a limit tells only on which side of the number the result lay.

Assay [1] deals with T1, Replicative DNA helicase DnaB (Mycobacterium tuberculosis, UniProt P9WMR3).
T1 sequence (P9WMR3 whole entry): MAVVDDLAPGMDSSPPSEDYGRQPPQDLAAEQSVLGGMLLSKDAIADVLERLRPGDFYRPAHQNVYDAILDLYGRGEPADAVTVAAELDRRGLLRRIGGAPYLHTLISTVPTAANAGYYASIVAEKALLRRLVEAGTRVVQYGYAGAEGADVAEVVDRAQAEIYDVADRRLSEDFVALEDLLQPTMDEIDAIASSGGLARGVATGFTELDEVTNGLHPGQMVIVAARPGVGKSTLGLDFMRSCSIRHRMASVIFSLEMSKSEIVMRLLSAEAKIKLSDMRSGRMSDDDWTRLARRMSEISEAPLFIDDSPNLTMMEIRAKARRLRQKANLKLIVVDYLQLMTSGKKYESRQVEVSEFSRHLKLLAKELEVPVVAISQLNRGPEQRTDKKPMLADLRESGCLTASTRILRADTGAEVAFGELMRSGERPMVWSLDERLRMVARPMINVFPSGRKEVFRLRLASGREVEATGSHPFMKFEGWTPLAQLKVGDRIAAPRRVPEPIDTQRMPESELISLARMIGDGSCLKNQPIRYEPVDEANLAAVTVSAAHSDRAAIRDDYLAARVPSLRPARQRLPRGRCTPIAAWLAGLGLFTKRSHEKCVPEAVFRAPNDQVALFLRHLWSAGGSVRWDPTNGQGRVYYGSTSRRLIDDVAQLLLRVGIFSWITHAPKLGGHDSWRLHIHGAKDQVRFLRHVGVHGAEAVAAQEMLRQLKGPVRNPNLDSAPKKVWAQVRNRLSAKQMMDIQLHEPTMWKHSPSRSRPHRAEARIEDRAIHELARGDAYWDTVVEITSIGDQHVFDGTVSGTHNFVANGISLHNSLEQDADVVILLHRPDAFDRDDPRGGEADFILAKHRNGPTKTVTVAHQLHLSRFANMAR
Kind of assay: DnaB intein splicing inhibitors, dose response, biochemical, cell-free fluorescence (AID 449749). It is filed as functional.

For assay [2], the target named is T2, Sentrin-specific protease 8 (Homo sapiens, UniProt Q96LD8).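 Further: luminescence read-out of SENP8 inhibition, dose-response confirmation following an ultra-high-throughput screen.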
T2 sequence (Q96LD8 whole entry): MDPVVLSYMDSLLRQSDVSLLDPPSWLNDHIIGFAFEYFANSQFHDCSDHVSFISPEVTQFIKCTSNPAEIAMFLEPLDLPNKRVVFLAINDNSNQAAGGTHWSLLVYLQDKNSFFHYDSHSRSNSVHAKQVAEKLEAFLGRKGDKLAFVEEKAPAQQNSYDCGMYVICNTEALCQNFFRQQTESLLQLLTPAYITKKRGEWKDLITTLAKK
It is filed as functional.

Assay [3] deals with T3, Tyrosyl-DNA phosphodiesterase 2 (Homo sapiens, UniProt O95551).
T3 sequence (O95551 whole entry): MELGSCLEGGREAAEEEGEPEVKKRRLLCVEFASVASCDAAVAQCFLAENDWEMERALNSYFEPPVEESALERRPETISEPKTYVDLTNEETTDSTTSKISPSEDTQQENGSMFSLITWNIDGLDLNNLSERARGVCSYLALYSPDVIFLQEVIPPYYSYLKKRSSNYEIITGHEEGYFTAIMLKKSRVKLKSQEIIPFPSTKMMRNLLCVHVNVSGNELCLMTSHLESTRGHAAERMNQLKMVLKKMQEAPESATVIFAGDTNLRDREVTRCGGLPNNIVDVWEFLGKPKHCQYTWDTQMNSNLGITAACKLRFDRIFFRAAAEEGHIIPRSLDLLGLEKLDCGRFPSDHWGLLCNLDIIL
In words: potency against TDP2 phosphodiesterase activity – biochemical, epi absorbance, IC50, dose response (AID 743297).

In assay [4] the target is T4, Sentrin-specific protease 7 (Homo sapiens, UniProt Q9BQF6).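 Further: Luminescence-based dose-response confirmation of ultra-high-throughput screening hits, measuring inhibition of SENP7.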
T4 sequence (Q9BQF6 whole entry): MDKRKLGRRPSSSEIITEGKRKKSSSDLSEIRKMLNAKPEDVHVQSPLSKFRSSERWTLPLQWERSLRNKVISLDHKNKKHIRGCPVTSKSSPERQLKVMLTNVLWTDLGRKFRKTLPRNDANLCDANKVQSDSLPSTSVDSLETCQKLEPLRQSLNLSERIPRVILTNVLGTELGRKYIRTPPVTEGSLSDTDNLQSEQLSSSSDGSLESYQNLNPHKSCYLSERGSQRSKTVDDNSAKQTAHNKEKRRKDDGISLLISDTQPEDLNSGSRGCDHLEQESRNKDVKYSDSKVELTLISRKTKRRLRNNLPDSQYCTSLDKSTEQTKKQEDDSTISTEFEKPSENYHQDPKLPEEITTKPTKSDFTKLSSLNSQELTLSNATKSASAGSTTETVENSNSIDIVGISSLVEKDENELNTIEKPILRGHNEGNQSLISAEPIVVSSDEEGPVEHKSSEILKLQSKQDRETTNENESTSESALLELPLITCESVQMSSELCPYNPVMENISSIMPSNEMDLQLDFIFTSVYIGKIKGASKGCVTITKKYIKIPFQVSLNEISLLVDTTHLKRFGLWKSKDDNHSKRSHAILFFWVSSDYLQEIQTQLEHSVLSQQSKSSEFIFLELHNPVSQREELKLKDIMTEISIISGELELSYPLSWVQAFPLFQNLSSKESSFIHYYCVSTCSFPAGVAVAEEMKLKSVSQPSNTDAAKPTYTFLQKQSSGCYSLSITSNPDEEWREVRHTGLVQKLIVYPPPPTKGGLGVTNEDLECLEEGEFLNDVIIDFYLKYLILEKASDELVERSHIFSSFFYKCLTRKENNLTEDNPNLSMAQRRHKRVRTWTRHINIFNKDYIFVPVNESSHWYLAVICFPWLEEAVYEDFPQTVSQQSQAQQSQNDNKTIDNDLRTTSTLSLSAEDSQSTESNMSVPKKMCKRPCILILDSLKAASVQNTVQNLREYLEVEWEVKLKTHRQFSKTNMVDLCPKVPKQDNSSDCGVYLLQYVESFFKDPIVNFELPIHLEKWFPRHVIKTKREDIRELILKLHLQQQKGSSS
It is filed as functional.

A further assay concerns the target T5, Caspase-3 (Homo sapiens, UniProt P42574).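 Further: Dose-response selectivity test against caspase-3 for candidate inhibitors of sentrin-specific proteases (SENPs).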
T5 sequence (P42574 whole entry): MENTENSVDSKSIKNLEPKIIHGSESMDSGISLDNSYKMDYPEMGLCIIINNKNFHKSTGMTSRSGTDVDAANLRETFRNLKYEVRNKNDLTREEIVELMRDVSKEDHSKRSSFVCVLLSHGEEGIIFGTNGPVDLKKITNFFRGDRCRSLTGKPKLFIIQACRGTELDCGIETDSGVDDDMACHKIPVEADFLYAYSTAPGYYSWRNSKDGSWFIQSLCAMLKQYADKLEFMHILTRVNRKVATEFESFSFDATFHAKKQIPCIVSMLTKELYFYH
It is filed as functional.

The next assay deals with Streptococcus. In words: GAS UMAA2166 growth inhibition – luminescence, BacTiterGlo, counter-screen for streptokinase expression inhibitor project, dose response (AID 1915).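 Further: potency for reduction of bacterial viability or growth.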 It is filed as functional, organism-based.

What is called AC50 is the concentration giving half of the maximal activity seen. Consider `Cn1nc(-c2ccc(Cl)cc2)nc2c(=O)n(C)c(=O)nc1-2`, for which, in assay [1], the AC50 is 0.0409 µM (active).
As usually defined, the IC50 is the point on the concentration scale where inhibition reaches its midpoint. Turning to `NS(=O)(=O)c1ccc(NC(=O)COC(=O)c2ccc([N+](=O)[O-])s2)cc1`, the IC50 in assay [2] is 4.33 µM (active); in assay [3] it was 32.2 µM (inactive); in assay [4], 7.78 µM (active); on Caspase-3, 10.2 µM (active).
Regarding `CCCCNc1cc(NC(C)=O)cc2cc(OC)c(OC)cc12`, the IC50 was 18.3 µM (active) in assay [2], 87.5 µM (inactive) in assay [3], 19.9 µM (active) in assay [4] and 20.7 µM (active) at Caspase-3.
As to `SC1=Nc2ccccc2C1`, the AC50 in assay [1] is 1.77 µM (active).
Broadly, the EC50 is the concentration giving half of the maximal effect. Regarding `COc1ccc(C(NC(=O)C(C)C)c2ccc3cccnc3c2O)cc1` (configuration not stated), the EC50 in the assay on Streptococcus is reported as > 150 µM (not active).
Still for that read-out and setting: with `O=C(Cc1ccc([N+](=O)[O-])cc1)N/N=C/c1ccc([N+](=O)[O-])o1` the figure was 21.7 µM (active).
